Measured values from patent US20100048462A1, “TRUNCATED PTH PEPTIDES WITH A CYCLIC CONFORMATION” (Zealand Pharma A/S, priority 2006, published 2010).
Bridge positions count the residues as written; N and C are the ends. Square brackets hold non-standard residues; d marks the D form. Peptide text beside a SMILES is read from it. hArg = N=C(N)NCCCC[C@H](N)C(=O)O; Ac5c = NC1(C(=O)O)CCCC1; Dab = NCC[C@H](N)C(=O)O; Aib = CC(C)(N)C(=O)O

Legend:
[1] = molecular target: T1, Saos-2 PTH1R (Homo sapiens, UniProt Q03431); test: cAMP-efficacy assay in Saos-2 cells; format: cell-based; details: for potency compared to linear / non-stabilized counterparts, in words / EC50 / pEC50 ± SEM: cAMP; for EC50 / pEC50 ± SEM: 100 μM IBMX, 37° C. 15 min, suffix of label = salt tested; for Emax ± SEM: relative effect to the control (SEQ ID NO: 32)
T1 construct: endogenous in cells; host or cells: Saos-2
T1 sequence (Q03431 27-593): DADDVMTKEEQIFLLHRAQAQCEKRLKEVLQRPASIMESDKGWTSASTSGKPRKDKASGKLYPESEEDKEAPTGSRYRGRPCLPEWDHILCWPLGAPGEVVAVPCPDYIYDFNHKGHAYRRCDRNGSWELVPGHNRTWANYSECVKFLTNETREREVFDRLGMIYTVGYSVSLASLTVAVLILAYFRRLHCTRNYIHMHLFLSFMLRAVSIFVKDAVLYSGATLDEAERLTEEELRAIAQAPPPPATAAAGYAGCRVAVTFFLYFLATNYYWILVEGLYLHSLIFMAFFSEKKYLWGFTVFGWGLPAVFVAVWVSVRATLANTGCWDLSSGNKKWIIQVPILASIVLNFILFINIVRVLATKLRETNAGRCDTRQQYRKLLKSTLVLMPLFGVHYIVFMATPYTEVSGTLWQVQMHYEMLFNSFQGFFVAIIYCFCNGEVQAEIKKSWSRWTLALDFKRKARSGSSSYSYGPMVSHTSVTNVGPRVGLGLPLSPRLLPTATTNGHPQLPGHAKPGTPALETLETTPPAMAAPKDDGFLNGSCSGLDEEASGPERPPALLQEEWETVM
Procedure, shortened: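 Saos-2 cells, grown two days after seeding at 50,000 cells/well, were exposed to peptide for 15 min at 37 °C in Tyrode's buffer with 0.1% BSA and 100 μM IBMX. After stopping with cold HCl, cAMP was measured by radioimmunoassay FlashPlate. EC50, pEC50, Hill slope and Emax came from a four-parameter sigmoidal fit.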

[2] = molecular target: T2, CYP2D6 (Homo sapiens, UniProt P10635); test: CYP2D6 inhibition in pooled human liver microsomes; format: in vitro ADME; design: Pooled human liver microsomes (HLM, final concentration 0.05 mg protein/mL); tissue BD Biosciences 452161; host or cells: pooled human liver microsomes; details: 10 μM compound, dextrorphan formation rate
T2 sequence (P10635 whole entry): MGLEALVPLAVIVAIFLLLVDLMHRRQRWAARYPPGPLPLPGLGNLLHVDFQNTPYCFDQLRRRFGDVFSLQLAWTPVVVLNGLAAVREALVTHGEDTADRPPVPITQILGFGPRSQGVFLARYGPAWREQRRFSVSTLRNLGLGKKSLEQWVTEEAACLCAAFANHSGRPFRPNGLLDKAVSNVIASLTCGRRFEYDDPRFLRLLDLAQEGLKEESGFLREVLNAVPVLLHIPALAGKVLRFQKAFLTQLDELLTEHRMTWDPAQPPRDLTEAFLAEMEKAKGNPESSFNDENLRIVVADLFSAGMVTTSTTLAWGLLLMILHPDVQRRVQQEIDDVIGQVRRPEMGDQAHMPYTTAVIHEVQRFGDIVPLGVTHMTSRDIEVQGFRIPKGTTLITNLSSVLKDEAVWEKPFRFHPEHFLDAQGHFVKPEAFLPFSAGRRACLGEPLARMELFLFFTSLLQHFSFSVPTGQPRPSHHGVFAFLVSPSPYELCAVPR
Method: Stock solutions of the test compounds (1 mM) were prepared in 50% isopropanol or 20% DMSO. Pooled human liver microsomes (HLM, final concentration 0.05 mg protein/mL) were mixed with phosphate buffer (0.1 M potassium phosphate, pH 7.4), CYP2D6 substrate (dextrometrorphan, 5 μM final concentration) and test compound (10 μM), quinidine (0.5 μM) or vehicle (0.2% DMSO or 0.5% isopropanol). The mixture was preincubated for 5 min at 37° C. prior to initiation of the reaction addition of a NADPH regenerating mixture (Final concentration: 1.25 mM NADP^+, 3.3 mM Glucose-6-phosphate, 3.3 mM MgCL2 and 0.4 U/mL glucose-6-phosphat dehydrogenase). After 5 minutes the reaction was stopped by addition of 0.25 volume stop reagent (94% acetonitrile, 6% acetic acid). Each experiment was performed in duplicate or triplicate.
The quantification of CYP2D6 product (dextrorphan) was performed by LC/MS/MS. After centrifugation for 5 min at 10.000 g, 40 μL of the supernatant was injected onto a C8 RP-HPLC column (XterraMS, C8, […], 50×2.1 mm). Dextrorphan was eluted by a linear gradient from 0 to 90% acetonitrile in 0.1% formic acid over 4 min using a flow rate of 0.15 ml/min. The concentration of dextrorphan in the reaction mixture was estimated from the peak area of the MS/MS transition (m/z 258.1>199) using an external calibration curve (Table 8).
The CYP2D6 activity in HLM was calculated as the metabolite formation rate: […]
Where, v is the formation rate, [metabolite] is the detected concentration of dextrorphan (pmol/mL) at the time (t, min) and [protein] is the protein concentration (mg/mL) in the reaction mixture. The influence of the test compounds on the CYP2D6 activity was calculated as % of the activity measured when incubated with the vehicle. The effect of CYP2D6 inhibitor (quinidine) was included as inhibition control within each batch analysis. A reduction in CYP2D6 activity to less than 70% of the vehicle control was considered significant.

[3] = molecular target: T2, CYP2D6; test: cell-based or functional assay
[4] = molecular target: Saos-2 PTH1R (UniProt Q03431); test: cell-based or functional assay

With `CC[C@H](C)[C@H](NC(=O)[C@H](CCC(=O)O)NC(=O)C(C)(C)NC(=O)[C@@H](NC(=O)C1(N)CCCC1)C(C)C)C(=O)N[C@@H](CCC(N)=O)C(=O)N[C@@H](CC(C)C)C(=O)N[C@@H](CCSC)C(=O)N[C@@H](Cc1c[nH]cn1)C(=O)N[C@@H](CC(N)=O)C(=O)N[C@@H](CC(C)C)C(=O)NCC(=O)N[C@H]1CCCCNC(=O)C[C@@H](C(N)=O)NC(=O)[C@H](CC(N)=O)NC(=O)[C@H](CC(C)C)NC(=O)[C@H](Cc2c[nH]cn2)NC1=O` [SEQ ID NO: 34] (H-[Ac5c]V[Aib]EIQLMHNLGKHLND-NH2; lactam 13-17) the “potency compared to linear / non-stabilized counterparts, in words” value [1] was “significantly higher potency”, the EC50 [1] was 214 nM and the “potency compared to linear / non-stabilized counterparts, in words” value ([1]; listed as 34) was “increased potencies”. The “potency compared to linear / non-stabilized counterparts, in words” value ([1]; listed as SEQ ID NO:34) was “strikingly higher potency”, the “Emax ± SEM” value [1] was 1.12 ± 0.09 and the “CYP2D6 activity (% of vehicle)” value [2] was 107 % of vehicle.

With `CC[C@H](C)[C@H](NC(=O)[C@H](CCC(=O)O)NC(=O)[C@H](CO)NC(=O)[C@@H](NC(=O)[C@@H](N)CO)C(C)C)C(=O)N[C@@H](CCC(N)=O)C(=O)N[C@@H](CC(C)C)C(=O)N[C@@H](CCSC)C(=O)N[C@@H](Cc1c[nH]cn1)C(=O)N[C@@H](CC(N)=O)C(=O)N[C@@H](CC(C)C)C(=O)NCC(=O)N[C@H]1CCCCNC(=O)C[C@@H](C(N)=O)NC(=O)[C@H](CC(N)=O)NC(=O)[C@H](CC(C)C)NC(=O)[C@H](Cc2c[nH]cn2)NC1=O` [SEQ ID NO: 36] the “pEC50 ± SEM” value [1] was “inactive” and the “CYP2D6 activity (% of vehicle)” value [2] was 79 % of vehicle.

In the case of `CC[C@H](C)[C@H](NC(=O)[C@H](CCC(=O)O)NC(=O)[C@H](CO)NC(=O)[C@@H](NC(=O)[C@@H](N)CO)C(C)C)C(=O)N[C@@H](CCC(N)=O)C(=O)N[C@@H](CC(C)C)C(=O)N[C@@H](CCSC)C(=O)N[C@@H](Cc1c[nH]cn1)C(=O)N[C@@H](CC(N)=O)C(=O)N[C@@H](CC(C)C)C(=O)NCC(=O)N[C@@H](CCCCN)C(=O)N[C@@H](Cc1c[nH]cn1)C(=O)N[C@@H](CC(C)C)C(=O)N[C@@H](CC(N)=O)C(=O)N[C@@H](CO)C(N)=O` [SEQ ID NO: 37, reference compound], the “pEC50 ± SEM” value [1] is reported as “inactive” and the “CYP2D6 activity (% of vehicle)” value [2] is reported as 41 % of vehicle.

`CC[C@H](C)[C@H](NC(=O)[C@H](CCC(=O)O)NC(=O)C(C)(C)NC(=O)[C@@H](NC(=O)C1(N)CCCC1)C(C)C)C(=O)N[C@@H](CCC(N)=O)C(=O)N[C@@H](CC(C)C)C(=O)N[C@@H](CC(C)C)C(=O)N[C@@H](Cc1c[nH]cn1)C(=O)N[C@@H](CCC(N)=O)C(=O)N[C@@H](CCCCNC(=N)N)C(=O)N[C@@H](C)C(=O)N[C@H]1CCNC(=O)C[C@@H](C(N)=O)NC(=O)[C@H](CC(N)=O)NC(=O)[C@H](CC(C)C)NC(=O)[C@H](Cc2c[nH]c3ccccc23)NC1=O` [SEQ ID NO: 41, H-Ac5c-Val-Aib-Glu-Ile-Gln-Leu-Leu-His-Gln-Har-Ala-Dab( )-Trp-Leu-Asn-Asp( )-NH2] (H-[Ac5c]V[Aib]EIQLLHQ[hArg]A[Dab]WLND-NH2; lactam 13-17 (inferred)) was tested, and the EC50 [1] was 64.6 nM, the “Emax ± SEM” value [1] was 0.99 ± 0.02 and the “CYP2D6 activity (% of vehicle)” value [2] was 82 % of vehicle.

With “H-Ac5c-Val-Aib-Glu-Ile-Gln-Leu-Met-His-Gln-Har-Ala-Glu( )-Trp-Leu-Asn-Lys( )-NH2 (peptide)” the CYP2D6 activity (% of vehicle), dextrorphan formation rate in human liver microsomes, 10 µM peptide [3] was 99 % of vehicle, the Emax, cAMP efficacy assay in Saos-2 cells (8T, trifluoroacetate salt) (relative to control (SEQ ID NO: 32)) [4] was 1.07 and the pEC50, cAMP efficacy assay in Saos-2 cells (8T, trifluoroacetate salt) [4] was 7.94 -log(M).

For “H-Ac5c-Val-Aib-Glu-Ile-Gln-Leu-Met-His-Gln-Har-Ala-Lys( )-Trp-Leu-Asn-Asp( )-OH (peptide)”, the CYP2D6 activity (% of vehicle), dextrorphan formation rate in human liver microsomes, 10 µM peptide [3] was 89 % of vehicle, the Emax, cAMP efficacy assay in Saos-2 cells (4T, trifluoroacetate salt) (relative to control (SEQ ID NO: 32)) [4] was 1.11 and the pEC50, cAMP efficacy assay in Saos-2 cells (4T, trifluoroacetate salt) [4] was 7.42 -log(M).
